Legend:
potassium arsenate = compound: O=[As]([O-])(O)O.[K+] [potassium arsenate]; assay: thermal stability z-score vs DMSO; higher = more thermally stabilized by treatment; conditions: HeLa; arsenate concentration 1 mM
Experimental: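 Cellular thermal proteome profiling in HeLa cells treated with 1 mM arsenate for 1 h (DMSO pretreatment), heated to ten temperatures (37-66.3 °C). Soluble protein was quantified by TMT mass spectrometry relative to DMSO controls; the thermal stability score was transformed to a z-score; mean of n = 3 experiments.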

lipoamide = compound: NC(=O)CCCCC1CCSS1 [lipoamide]; assay: as above; conditions: HeLa, lipoamide concentration 100 µM
Experimental: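 Cellular thermal proteome profiling in HeLa cells. Cells were treated with 100 µM lipoamide for 1 h, with or without 1 mM arsenate for a further 1 h, then heated to ten temperatures (37-66.3 °C), and soluble protein was quantified by TMT mass spectrometry relative to 0.1% DMSO controls. The thermal stability score (sum of log2 fold changes minus the abundance score) was transformed to a z-score; mean of n = 3 experiments.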

[1] = arsenate co-treatment: 1 mM arsenate 1 h
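Further: each temperature applied for 3 min, abundance score taken as mean log2 fold change at the two lowest temperatures, z-score obtained by mean subtraction and division by SD.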

UniProt Q6NZ67, sequence (Q6NZ67 whole entry): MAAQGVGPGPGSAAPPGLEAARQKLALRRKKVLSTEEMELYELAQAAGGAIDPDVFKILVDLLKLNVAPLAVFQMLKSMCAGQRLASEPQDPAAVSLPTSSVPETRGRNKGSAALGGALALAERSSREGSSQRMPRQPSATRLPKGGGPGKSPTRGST
UniProt Q9Y6R0, sequence (Q9Y6R0 whole entry): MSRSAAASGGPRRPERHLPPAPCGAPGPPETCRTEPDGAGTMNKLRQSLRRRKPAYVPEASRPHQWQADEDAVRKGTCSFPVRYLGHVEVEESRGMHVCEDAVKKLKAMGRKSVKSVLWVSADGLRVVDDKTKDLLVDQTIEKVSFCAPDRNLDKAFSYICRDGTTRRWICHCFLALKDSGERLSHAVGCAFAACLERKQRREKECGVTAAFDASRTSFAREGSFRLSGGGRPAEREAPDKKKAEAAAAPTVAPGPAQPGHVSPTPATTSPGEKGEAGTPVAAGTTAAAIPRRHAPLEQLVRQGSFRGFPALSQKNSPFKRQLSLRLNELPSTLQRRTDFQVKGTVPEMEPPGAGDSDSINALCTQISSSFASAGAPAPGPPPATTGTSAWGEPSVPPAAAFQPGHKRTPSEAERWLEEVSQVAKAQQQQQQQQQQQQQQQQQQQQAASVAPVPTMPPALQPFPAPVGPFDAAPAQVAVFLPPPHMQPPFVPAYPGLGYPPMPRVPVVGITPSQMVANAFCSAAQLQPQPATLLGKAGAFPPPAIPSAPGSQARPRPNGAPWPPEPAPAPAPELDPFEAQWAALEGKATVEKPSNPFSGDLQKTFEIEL
UniProt P07910, sequence (P07910 whole entry): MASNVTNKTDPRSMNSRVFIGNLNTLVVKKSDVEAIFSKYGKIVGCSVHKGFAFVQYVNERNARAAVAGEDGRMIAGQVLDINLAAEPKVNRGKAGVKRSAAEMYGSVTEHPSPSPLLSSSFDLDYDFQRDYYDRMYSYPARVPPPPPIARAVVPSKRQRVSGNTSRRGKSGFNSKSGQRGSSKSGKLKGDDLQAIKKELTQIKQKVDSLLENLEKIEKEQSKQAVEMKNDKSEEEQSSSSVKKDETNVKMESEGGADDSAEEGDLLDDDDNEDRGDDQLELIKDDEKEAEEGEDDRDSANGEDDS
UniProt Q8N1S5, sequence (Q8N1S5 whole entry): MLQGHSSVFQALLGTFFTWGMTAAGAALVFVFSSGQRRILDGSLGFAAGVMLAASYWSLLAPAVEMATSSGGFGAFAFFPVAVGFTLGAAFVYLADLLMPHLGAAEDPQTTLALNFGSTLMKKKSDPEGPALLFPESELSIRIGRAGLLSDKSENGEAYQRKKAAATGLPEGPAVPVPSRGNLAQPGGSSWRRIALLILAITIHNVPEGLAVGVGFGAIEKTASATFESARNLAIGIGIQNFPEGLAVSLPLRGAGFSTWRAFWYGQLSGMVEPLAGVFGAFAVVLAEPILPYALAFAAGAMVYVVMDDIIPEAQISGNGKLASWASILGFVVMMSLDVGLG
UniProt P52943, sequence (P52943 whole entry): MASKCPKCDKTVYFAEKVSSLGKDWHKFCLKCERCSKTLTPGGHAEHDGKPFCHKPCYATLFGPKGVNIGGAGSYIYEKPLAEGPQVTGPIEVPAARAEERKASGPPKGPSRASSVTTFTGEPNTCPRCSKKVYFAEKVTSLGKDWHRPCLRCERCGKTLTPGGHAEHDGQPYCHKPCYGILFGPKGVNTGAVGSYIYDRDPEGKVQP
UniProt P51617, sequence (P51617 whole entry, looked up): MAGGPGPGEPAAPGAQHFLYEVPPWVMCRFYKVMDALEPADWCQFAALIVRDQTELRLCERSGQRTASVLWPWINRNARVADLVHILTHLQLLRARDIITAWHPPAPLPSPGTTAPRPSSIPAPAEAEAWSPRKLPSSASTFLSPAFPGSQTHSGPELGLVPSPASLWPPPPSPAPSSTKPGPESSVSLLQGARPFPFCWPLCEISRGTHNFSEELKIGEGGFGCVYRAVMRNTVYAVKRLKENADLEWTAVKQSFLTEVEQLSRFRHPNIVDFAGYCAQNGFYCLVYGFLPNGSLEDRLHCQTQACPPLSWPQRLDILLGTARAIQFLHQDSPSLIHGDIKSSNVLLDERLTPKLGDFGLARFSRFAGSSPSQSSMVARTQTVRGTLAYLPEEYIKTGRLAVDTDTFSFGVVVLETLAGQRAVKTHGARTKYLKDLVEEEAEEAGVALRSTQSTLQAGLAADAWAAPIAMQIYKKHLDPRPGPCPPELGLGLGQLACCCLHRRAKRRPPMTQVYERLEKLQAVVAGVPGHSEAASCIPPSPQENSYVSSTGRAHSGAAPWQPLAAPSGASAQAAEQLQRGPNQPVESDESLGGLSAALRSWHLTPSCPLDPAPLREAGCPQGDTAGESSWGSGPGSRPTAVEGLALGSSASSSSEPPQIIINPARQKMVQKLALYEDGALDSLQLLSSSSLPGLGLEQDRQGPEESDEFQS
UniProt P23229, sequence (P23229 whole entry): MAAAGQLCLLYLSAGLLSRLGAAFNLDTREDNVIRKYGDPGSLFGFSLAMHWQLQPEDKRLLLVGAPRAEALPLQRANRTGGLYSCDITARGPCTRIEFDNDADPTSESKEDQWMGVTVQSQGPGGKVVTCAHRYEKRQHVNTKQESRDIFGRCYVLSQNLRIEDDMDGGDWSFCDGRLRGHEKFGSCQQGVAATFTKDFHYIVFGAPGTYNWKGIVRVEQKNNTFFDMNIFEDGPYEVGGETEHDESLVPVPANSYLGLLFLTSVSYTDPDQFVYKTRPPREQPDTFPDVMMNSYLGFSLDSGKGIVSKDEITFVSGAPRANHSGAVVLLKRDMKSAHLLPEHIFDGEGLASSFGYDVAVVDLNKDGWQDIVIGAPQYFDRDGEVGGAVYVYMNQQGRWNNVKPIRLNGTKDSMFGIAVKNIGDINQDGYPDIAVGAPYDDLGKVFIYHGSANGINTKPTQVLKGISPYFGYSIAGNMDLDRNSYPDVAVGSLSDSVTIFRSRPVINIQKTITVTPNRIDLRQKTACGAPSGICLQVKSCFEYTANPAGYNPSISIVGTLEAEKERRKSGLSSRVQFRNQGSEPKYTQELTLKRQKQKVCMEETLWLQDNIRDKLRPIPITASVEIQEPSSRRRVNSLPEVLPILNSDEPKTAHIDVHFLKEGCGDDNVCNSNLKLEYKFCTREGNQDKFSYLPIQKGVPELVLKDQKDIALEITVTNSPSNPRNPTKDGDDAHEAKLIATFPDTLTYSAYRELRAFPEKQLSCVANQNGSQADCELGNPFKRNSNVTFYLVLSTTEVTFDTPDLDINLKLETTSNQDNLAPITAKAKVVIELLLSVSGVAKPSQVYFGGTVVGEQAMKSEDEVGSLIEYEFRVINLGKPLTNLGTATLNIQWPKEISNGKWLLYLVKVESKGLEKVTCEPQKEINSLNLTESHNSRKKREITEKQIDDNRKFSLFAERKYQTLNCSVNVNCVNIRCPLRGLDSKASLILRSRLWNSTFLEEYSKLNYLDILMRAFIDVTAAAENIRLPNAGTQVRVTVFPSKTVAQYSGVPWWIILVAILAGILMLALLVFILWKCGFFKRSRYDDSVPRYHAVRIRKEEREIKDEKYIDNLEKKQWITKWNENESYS
UniProt O95340, sequence (O95340 whole entry): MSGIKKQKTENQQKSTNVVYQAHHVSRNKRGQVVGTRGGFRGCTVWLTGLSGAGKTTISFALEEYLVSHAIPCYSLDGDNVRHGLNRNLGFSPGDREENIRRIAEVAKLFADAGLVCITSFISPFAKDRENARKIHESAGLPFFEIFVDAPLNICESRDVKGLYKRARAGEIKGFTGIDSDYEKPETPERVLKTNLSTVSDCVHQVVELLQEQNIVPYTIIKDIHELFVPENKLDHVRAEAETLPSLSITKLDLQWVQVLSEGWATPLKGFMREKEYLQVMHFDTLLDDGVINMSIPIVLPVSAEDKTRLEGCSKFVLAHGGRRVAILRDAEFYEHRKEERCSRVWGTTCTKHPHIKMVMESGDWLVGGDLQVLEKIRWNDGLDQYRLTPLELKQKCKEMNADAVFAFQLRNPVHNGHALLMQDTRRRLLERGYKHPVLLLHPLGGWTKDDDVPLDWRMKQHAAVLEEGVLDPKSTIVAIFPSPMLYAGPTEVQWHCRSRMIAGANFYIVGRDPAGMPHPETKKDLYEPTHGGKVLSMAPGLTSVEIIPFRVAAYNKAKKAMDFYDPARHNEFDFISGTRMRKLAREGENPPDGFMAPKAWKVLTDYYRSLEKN
UniProt P58546, sequence (P58546 whole entry): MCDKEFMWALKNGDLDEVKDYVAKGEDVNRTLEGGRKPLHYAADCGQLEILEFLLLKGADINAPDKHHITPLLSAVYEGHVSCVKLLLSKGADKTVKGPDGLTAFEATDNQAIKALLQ
UniProt O75608, sequence (O75608 whole entry): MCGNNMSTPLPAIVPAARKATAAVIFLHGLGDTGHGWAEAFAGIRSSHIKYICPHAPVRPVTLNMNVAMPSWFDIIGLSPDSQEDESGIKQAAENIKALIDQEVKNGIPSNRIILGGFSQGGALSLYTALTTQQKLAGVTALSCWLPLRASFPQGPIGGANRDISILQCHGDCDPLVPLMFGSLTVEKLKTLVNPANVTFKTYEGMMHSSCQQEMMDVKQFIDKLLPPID
UniProt P26447, sequence (P26447 whole entry, looked up): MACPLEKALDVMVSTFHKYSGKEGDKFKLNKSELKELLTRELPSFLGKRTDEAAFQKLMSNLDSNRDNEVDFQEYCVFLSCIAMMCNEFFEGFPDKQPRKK
UniProt Q70IA6, sequence (Q70IA6 whole entry): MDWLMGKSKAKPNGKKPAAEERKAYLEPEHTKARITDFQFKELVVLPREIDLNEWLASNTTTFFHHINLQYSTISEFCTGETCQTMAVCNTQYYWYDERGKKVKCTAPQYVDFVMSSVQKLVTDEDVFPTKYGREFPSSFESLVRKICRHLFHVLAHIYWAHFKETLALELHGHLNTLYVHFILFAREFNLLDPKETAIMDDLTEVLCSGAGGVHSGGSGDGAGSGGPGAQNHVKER
UniProt O95777, sequence (O95777 whole entry): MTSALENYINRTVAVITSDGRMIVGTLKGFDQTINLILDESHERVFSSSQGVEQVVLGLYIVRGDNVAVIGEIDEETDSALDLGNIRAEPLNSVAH

Target	thermal stability z-score (potassium arsenate)	thermal stability z-score (lipoamide; [1])	thermal stability z-score (lipoamide; arsenate co-treatment: none)
VPS18 (UniProt Q9P253)	0.788	-0.401	-0.805
PDCD4 (UniProt Q53EL6)	-0.0393	-0.493	-0.0889
LSM8 (UniProt O95777)	-0.214	1.17	0.47
MOB2 (UniProt Q70IA6)	0.0529	-0.235	-0.176
TYRO3 (UniProt Q06418)	-0.136	0.189	-0.0901
TNS2 (UniProt Q63HR2)	-0.101	-0.0104	-0.0152
RPP25 (UniProt Q9BUL9)	-1.34	-0.534	-0.856
PTP4A1 (UniProt Q93096)	0.626	1.33	1.25
NMNAT1 (UniProt Q9HAN9)	1.87	1.03	1.15
ENOPH1 (UniProt Q9UHY7)	-0.296	0.0377	-0.118
MTSS1L (UniProt Q765P7)	-0.228	0.179	0.0525
IVD (UniProt P26440)	0.902	0.0798	-0.0801
COA6 (UniProt Q5JTJ3)	0.756	1.7	1.85
ARL8A (UniProt Q96BM9)	0.218	0.375	0.0879
KDM1A (UniProt O60341)	-1.3	1.9	2.21
CCDC9 (UniProt Q9Y3X0)	-0.162	1.57	1.4
USP11 (UniProt P51784)	0.143	-0.0801	-0.162
LYPLA1 (UniProt O75608)	-0.862	0.624	-0.159
NAGK (UniProt Q9UJ70)	-0.921	0.0756	-0.796
EPPK1 (UniProt P58107)	-0.359	-0.00734	0.0541
GCLC (UniProt P48506)	1.56	0.874	0.402
TIFA (UniProt Q96CG3)	-0.879	-0.71	-0.0546
ITGA6 (UniProt P23229)	0.156	-0.0761	0.174
FMNL2 (UniProt Q96PY5)	-0.048	0.0679	-0.0271
PAM (UniProt P19021)	-1.17	-1.15	-1.32
MUT (UniProt P22033)	-1.02	-0.252	-0.48
HNRNPC (UniProt P07910)	0.94	2.24	1.04
SLC39A11 (UniProt Q8N1S5)	0.429	0.867	0.694

Target	thermal stability z-score (potassium arsenate)	thermal stability z-score (lipoamide; [1])	thermal stability z-score (lipoamide; arsenate co-treatment: none)
EXOC5 (UniProt O00471)	-0.0647	-0.0743	0.105
NUMBL (UniProt Q9Y6R0)	-1.68	0.0444	0.451
FUT11 (UniProt Q495W5)	0.00651	-1.71	-0.756
CRIP2 (UniProt P52943)	-0.637	-0.0467	0.146
SNX12 (UniProt Q9UMY4)	0.108	-0.128	-0.00318
PAPSS2 (UniProt O95340)	1.57	-0.146	-0.156
YWHAB (UniProt P31946)	0.281	0.364	0.584
TRMT61A (UniProt Q96FX7)	-0.0703	1.14	-1.08
RANBP9 (UniProt Q96S59)	-0.508	-0.364	-0.234
RBM42 (UniProt Q9BTD8)	-0.098	0.952	0.152
MAN2A1 (UniProt Q16706)	-0.264	-0.502	-0.428
RABEP2 (UniProt Q9H5N1)	1.26	0.129	0.15
PLAA (UniProt Q9Y263)	-0.0864	0.0745	-0.41
ARHGEF2 (UniProt Q92974)	0.444	-0.182	0.0779
PES1 (UniProt O00541)	-0.721	-0.108	0.121
CHTF18 (UniProt Q8WVB6)	-0.0702	-0.117	-0.0426
FDX1 (UniProt P10109)	-0.0279	-0.234	-0.162
POLR1C (UniProt O15160)	-1.08	0.267	0.621
MTPN (UniProt P58546)	-0.432	0.382	0.145
TVP23C|TVP23B	0.27	0.653	1.19
IKBKB (UniProt O14920)	-0.426	-0.0799	-0.108
PICALM (UniProt Q13492)	-0.0231	0.107	-0.16
CHMP2B (UniProt Q9UQN3)	0.573	0.562	0.348
ILF3 (UniProt Q12906)	-1.11	1.39	0.801
IRAK1 (UniProt P51617)	-0.328	-0.153	-0.074
S100A4 (UniProt P26447)	-1.43	-0.414	-0.145
MZT2B (UniProt Q6NZ67)	0.0663	0.0548	0.181
